The numbers were not newly measured in patent US20070025918A1, “Magnetic resonance imaging (MRI) agents: water soluble carbon-13 enriched fullerene and carbon nanotubes for use with dynamic nuclear polarization” (General Electric Company, priority 2005, published 2007), which cites them from elsewhere.

The conditions of data set [1]: THF and acetone.

Consider C60F60, for which the solubility in water entry was “virtually insoluble”. In data set [1], the “solubility in organic solvents” value is recorded as “soluble”.
